In patent US20250353825A1, “CANNABICYCLOL DERIVATIVES AND PREPARATION METHODS THEREOF” (priority 2023, published 2025):
Where two headings read alike, the source gives them in different places.

Key:
Type in all cases: cell-based
U251 = assay: MTS cell viability assay, U251
Procedure: (§1) Primary viability screening: (1) the synthesized compounds 3a to 13d were respectively dissolved in DMSO to prepare a 40 μg/mL cannabicyclol and cannabicyclol derivative solutions.
(§2) (2) A control group: a 200 μL DMSO solvent.
(§3) (3) The solutions of compounds 3a to 13d were diluted in a twofold gradient to obtain cannabicyclol and cannabicyclol derivative solutions at concentrations of 40 μg/mL, 20 μg/mL, 10 μg/mL, 5 μg/mL, 2.5 μg/mL, 1.25 μg/mL, and 0.625 μg/mL, and 0.3125 μg/mL, respectively.
(§4) (4) Three glioblastoma stem cells (GSC-3, GSC-12, and GSC-18), three pancreatic cancer cell-derived stem cells (PANC-1-CSC, BXPC-3-CSC, and ASPC1-CSC), three liver cancer cell-derived stem cells (HepG2-CSC, MHCC97H-CSC, and SMMC7721-CSC), HEK-293T cells, 16 tumor cells (U251, U87, T98G, PANC1, BXPC3, ASPC1, HepG2, MHCC97H, SMMC7721, PC3, SKOV3, MDA-MB231, A549, HCT116, HEC-1B, MKN28), and differentiated glioblastoma stem cells (GSC-3diff and GSC-12diff) derived from GSC-3 and GSC-12 (all of the cells were provided by the Laboratory of Tumor Animal Model Preparation and Application Research, West China Hospital, Sichuan University) were inoculated into a 96-well plate at a concentration of 2×10^4 cells/well, and 100 μL of culture medium was then added to each well;
(§5) (5) 2) HEK-293T, GSC-3diff, GSC-12diff, and the 16 tumor cells were added with DMEM, 10% FBS, and 1% double antibody culture medium. Cancer stem cells (CSCs) were added with serum-free stem cell medium consisting of DMEM/F12, EGF (20 ng/mL), bFGF (20 ng/mL), B27 (1×), and 1% double antibody culture medium.
(§6) (6) Inoculated cells were put into a cell culture incubator for 24 hours, and after the cells were well adhered to the wall, the culture medium in the 96-well plate was discarded.
(§7) (7) 200 μL cannabicyclol and cannabicyclol derivatives solutions at different concentrations were added to the cultured cells.
(§8) (8) The experiment was set up with 3 replicates.
(§9) (9) The 96-well plate was placed in a cell culture incubator, and incubation was continued at 37° C. and 5% CO2 for 72 hours. Then, 100 μL of cannabicyclol and cannabicyclol derivative solution per well was discarded (100 μL of DMSO solvent was discarded for the control group), and 20 μL of LMTS (CellTiter AQueous Non-Radioactive Cell Proliferation Assay, #G3581) was mixed and continued to be placed in the cell incubator for 2 hours of incubation.
(§10) (10) The absorbance value at 490 nm was measured on an enzyme labeling apparatus, and the IC50 value was calculated.

[1] = MTS cell viability assay, HEK-293T (293T) normal cells; details: human
Procedure: as §1, §2, §3, §4, §5, §6, §7, §8, §9, §10

GSC-3 (3#-GSC) = assay: MTS cell viability assay, glioblastoma stem cells GSC-3 (3#-GSC)
Procedure: as §1, §2, §3, §4, §5, §6, §7, §8, §9, §10

[2] = primary viability screening, 72 hours, MTS, test concentration not stated
[3] = HEK-293T (293T) normal cells, primary viability screening, 72 hours, MTS, test concentration not stated, read-out: Cell viability in 293T (%)

Row | Compound | Cell viability in U251 (%) (U251; human, 72 h) | viability at 72 h [1] | Cell viability in 3#-GSC (%) (GSC-3 (3#-GSC); 72 h) | Cell viability in U251 (%) (U251; [2]) | viability at 72 h [1, 3] | Cell viability in 3#-GSC (%) (GSC-3 (3#-GSC); [2]) | viability at 72 h ([1]; primary viability screening, 72 hours, MTS, test concentration not stated, read-out: Cell viability in 293T (%))
1 | Cc1ccccc1-c1cc(O)c2c(c1)OC1(C)CCC3C1C2C3(C)C (stereo not drawn) [Compound 3n] | 17% | 50% | 41% |  |  |  | 
2 | CCCCCc1cc(OC(=O)CCCCOc2cc(=O)oc3ccccc23)c2c(c1)OC1(C)CCC3C1C2C3(C)C (stereo not drawn) [Compound 9t] | ≥100% | ≥ 100% | ≥100% |  |  |  | 
3 | CC12CCC3C1C(c1c(O)cc(-c4ccc(F)cc4)cc1O2)C3(C)C (stereo not drawn) [Compound 3r] | 76% | 45% | 43% |  |  |  | 
4 | CCCCCc1cc(OC(=O)CCCC[P+](c2ccccc2)(c2ccccc2)c2ccccc2)c2c(c1)OC1(C)CCC3C1C2C3(C)C (stereo not drawn) [Compound 9s] | 17% | 21% | 40% |  |  |  | 
5 | CCCCCCCc1cc(O)c2c(c1)OC1(C)CCC3C1C2C3(C)C (stereo not drawn) [Compound 3g] |  |  |  | 79% | 11% | 90% | 
6 | CCCCCc1cc(OCCC)c2c(c1)OC1(C)CCC3C1C2C3(C)C (stereo not drawn) [Compound 7d] |  |  |  | 82% | 77% | ≥100% | 
7 | CCCCCc1cc(OC)c2c(c1)OC1(C)CCC3C1C2C3(C)C (stereo not drawn) [Compound 7b] |  |  |  | 91% | 95% | ≥100% | 
8 | CCCCCc1cc(OC(=O)c2ccco2)c2c(c1)OC1(C)CCC3C1C2C3(C)C (stereo not drawn) [Compound 9j] |  |  |  | ≥100% | ≥ 100% | ≥100% | 
9 | CCCCCc1cc(O)c2c(c1)OC1(C)CCC3C(CC)C2C31 (stereo not drawn) [Compound 3v] |  |  |  | 71% |  | 30% | 79%
10 | CCCCCc1cc(OC(=O)c2ccncc2)c2c(c1)OC1(C)CCC3C1C2C3(C)C (stereo not drawn) [Compound 9i] |  |  |  | 88% | 91% | 91% | 
11 | CC12CCC3C1C(c1c(O)cc(-c4ccccc4)cc1O2)C3(C)C (stereo not drawn) [Compound 3k] | 15% | 45% | 52% |  |  |  | 
12 | COc1ccc(-c2cc(O)c3c(c2)OC2(C)CCC4C2C3C4(C)C)cc1 (stereo not drawn) [Compound 3q] | 19% | 40% | 39% |  |  |  | 
13 | C=CC(=O)Oc1cc(CCCCC)cc2c1C1C3C(CCC3(C)O2)C1(C)C (stereo not drawn) [Compound 9f] |  |  |  | 64% | 35% | 41% | 
14 | CCCCCc1cc(O)c2c(c1)OC1(C)CCC3C(C4CC4)C2C31 (stereo not drawn) [Compound 3y] |  |  |  | 98% | ≥ 100% | 47% | 
15 | CCCc1cc(O)c2c(c1)OC1(C)CCC3C1C2C3(C)C (stereo not drawn) [Compound 3d] |  |  |  | 71% | 91% | 40% | 
16 | C#CCOc1cc(CCCCC)cc2c1C1C3C(CCC3(C)O2)C1(C)C (stereo not drawn) [Compound 7e] |  |  |  | 72% | 75% | ≥100% | 
17 | CCCCc1cc(O)c2c(c1)OC1(C)CCC3C1C2C3(C)C (stereo not drawn) [Compound 3e] |  |  |  | 17% | 60% | 30% | 
18 | Cc1cc(C)cc(-c2cc(O)c3c(c2)OC2(C)CCC4C2C3C4(C)C)c1 (stereo not drawn) [Compound 3o] | 88% | 81% | 64% |  |  |  | 
19 | CCCCCCCCCCCCCc1cc(O)c2c(c1)OC1(C)CCC3C1C2C3(C)C (stereo not drawn) [Compound 3i] |  |  |  | 79% | 8% | 33% | 
